Measured values published in the kinase profiling compilation of Christmann-Franck et al. (2016).
One block for each compound: values may come before it.

What was measured:
Assay in all cases: radiometric filter-binding kinase assay
YES1 (human) = YES1 (human) (UniProt P07947)
NTRK1 (human) = NTRK1 (human) (UniProt P04629)
MAPK13 (human) = MAPK13 (human) (UniProt O15264)
PRKAA1 or PRKAA2 (rat) = conditions: accession and sequence are those of the human protein
LCK (mouse) = conditions: accession and sequence are those of the human protein
DYRK1A (human) = DYRK1A (human) (UniProt Q13627)
EPHB3 (human) = EPHB3 (human) (UniProt P54753)
EPHB3 (human), sequence (P54753 whole entry, looked up): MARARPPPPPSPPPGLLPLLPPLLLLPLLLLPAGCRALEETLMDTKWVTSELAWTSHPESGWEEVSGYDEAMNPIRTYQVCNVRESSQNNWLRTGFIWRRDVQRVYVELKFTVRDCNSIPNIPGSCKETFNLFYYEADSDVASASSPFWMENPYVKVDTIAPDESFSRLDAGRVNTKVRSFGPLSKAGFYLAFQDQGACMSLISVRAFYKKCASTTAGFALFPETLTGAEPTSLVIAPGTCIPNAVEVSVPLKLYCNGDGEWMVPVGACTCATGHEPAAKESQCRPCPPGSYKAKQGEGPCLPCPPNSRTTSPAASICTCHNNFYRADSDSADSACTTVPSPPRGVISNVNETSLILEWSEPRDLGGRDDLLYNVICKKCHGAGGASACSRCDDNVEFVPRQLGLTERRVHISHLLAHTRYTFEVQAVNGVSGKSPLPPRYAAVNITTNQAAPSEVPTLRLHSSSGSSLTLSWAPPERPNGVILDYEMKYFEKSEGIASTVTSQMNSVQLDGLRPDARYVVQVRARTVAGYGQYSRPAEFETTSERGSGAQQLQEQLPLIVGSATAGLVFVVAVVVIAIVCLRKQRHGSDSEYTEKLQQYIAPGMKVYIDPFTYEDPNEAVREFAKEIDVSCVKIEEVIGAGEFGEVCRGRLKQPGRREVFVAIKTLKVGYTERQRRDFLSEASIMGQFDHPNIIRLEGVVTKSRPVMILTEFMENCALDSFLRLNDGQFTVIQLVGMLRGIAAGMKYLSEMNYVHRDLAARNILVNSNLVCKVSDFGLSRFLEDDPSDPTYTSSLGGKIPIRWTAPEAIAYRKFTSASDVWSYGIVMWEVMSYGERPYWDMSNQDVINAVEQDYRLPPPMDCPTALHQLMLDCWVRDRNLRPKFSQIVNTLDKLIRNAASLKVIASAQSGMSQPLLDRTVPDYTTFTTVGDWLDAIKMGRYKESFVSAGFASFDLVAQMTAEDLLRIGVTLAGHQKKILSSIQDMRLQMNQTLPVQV

INSRR (human) = INSRR (human) (UniProt P14616)
MARK3 (human) = MARK3 (human) (UniProt P27448)
PIM2 (human) = PIM2 (human) (UniProt Q9P1W9)
PIM2 (human), sequence (Q9P1W9 whole entry, looked up): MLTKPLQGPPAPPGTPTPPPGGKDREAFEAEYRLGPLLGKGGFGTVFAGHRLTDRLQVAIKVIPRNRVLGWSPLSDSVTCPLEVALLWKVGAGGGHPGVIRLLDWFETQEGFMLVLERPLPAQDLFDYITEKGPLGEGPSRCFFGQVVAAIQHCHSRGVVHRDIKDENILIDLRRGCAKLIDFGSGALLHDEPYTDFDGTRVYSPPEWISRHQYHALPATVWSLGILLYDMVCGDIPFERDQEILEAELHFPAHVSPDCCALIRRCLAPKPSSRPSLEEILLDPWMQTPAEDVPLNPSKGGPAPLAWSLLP

CSNK2A1 (human) = CSNK2A1 (human) (UniProt P68400)
PRKACA (human) = PRKACA (human) (UniProt P17612)
RIPK2 (human) = RIPK2 (human) (UniProt O43353)
RIPK2 (human), sequence (O43353 whole entry, looked up): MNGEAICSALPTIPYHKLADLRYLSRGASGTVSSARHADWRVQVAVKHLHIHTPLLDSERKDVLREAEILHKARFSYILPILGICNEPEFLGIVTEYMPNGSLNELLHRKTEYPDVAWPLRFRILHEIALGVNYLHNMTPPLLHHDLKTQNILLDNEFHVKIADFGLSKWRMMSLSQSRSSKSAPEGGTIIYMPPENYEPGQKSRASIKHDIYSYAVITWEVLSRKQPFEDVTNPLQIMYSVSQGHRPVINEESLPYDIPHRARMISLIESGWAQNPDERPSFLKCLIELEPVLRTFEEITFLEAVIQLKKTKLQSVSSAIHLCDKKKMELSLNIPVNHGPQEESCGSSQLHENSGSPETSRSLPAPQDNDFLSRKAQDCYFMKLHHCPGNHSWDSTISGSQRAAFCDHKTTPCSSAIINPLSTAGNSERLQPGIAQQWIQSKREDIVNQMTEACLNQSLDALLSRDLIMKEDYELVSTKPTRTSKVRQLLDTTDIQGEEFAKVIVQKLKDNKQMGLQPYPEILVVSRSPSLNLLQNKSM

CAMKK2 (human) = CAMKK2 (human) (UniProt Q96RR4)
MKNK1 (human) = MKNK1 (human) (UniProt Q9BUB5)
[1] = tested on: AKT2 (human), P31751 [S474D]
AKT2 (human), P31751 [S474D], sequence (P31751 whole entry S474D, looked up): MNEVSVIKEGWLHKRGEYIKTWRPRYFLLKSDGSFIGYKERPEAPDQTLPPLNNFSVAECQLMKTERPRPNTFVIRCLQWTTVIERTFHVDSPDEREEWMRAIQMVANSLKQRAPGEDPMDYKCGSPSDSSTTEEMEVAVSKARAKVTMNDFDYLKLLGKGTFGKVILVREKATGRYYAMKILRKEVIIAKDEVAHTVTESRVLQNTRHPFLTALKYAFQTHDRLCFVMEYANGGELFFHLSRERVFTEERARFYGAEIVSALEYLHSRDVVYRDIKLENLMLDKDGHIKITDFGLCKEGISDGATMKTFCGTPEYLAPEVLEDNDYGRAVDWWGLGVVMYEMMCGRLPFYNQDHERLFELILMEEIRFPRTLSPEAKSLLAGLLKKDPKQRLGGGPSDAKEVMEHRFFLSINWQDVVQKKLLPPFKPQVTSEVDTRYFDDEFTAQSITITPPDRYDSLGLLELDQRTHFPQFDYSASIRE

MAP2K1 (human) = MAP2K1 (human) (UniProt Q02750)
JAK2 JH1 JH2 (human) = JAK2 JH1 JH2 (human) (UniProt O60674)
CaMK1 (human) = CaMK1 (human) (UniProt Q14012)
INSR (human) = INSR (human) (UniProt P06213); conditions: compound 10.0 µM
MAPK10 (human) = MAPK10 (human) (UniProt P53779)
AURKB (human) = AURKB (human) (UniProt Q96GD4)
SYK (human) = SYK (human) (UniProt P43405); conditions: compound 10.0 µM
MAP3K11 (human) = MAP3K11 (human) (UniProt Q16584)
MINK1 (human) = MINK1 (human) (UniProt Q8N4C8)
MINK1 (human), sequence (Q8N4C8 whole entry, looked up): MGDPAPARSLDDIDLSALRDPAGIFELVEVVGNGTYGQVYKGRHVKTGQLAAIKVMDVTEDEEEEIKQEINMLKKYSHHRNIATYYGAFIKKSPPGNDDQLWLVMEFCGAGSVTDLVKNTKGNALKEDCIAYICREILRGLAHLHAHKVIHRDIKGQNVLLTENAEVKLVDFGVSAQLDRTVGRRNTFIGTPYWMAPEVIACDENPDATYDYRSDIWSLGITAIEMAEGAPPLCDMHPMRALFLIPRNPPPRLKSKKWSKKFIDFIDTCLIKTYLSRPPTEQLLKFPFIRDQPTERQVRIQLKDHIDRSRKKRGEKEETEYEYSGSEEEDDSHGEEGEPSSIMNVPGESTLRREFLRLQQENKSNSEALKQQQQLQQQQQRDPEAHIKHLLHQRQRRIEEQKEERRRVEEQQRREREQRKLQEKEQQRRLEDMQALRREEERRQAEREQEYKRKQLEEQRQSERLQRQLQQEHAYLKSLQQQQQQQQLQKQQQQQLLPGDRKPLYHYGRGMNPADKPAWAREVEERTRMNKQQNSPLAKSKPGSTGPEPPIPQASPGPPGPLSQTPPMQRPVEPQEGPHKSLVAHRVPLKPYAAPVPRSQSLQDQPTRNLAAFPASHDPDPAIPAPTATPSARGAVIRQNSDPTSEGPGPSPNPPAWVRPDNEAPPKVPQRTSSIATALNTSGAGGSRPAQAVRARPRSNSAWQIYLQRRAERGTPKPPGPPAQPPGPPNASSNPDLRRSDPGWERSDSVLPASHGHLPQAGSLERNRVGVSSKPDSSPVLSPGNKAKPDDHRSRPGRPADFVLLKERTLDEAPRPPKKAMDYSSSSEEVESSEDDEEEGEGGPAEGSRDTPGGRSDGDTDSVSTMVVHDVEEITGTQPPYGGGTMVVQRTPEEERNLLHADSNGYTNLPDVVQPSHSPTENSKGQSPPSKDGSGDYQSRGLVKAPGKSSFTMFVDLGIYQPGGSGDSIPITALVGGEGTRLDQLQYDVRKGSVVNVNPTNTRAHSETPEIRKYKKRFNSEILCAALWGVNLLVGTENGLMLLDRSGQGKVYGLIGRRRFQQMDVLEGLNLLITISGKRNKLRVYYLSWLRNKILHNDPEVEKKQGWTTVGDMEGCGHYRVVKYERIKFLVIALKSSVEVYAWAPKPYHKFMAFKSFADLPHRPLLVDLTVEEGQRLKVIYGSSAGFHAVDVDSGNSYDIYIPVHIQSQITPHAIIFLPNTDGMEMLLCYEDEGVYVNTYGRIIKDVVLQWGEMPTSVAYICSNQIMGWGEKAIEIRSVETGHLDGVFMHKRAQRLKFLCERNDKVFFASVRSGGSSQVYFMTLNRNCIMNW

PRKCZ (human) = PRKCZ (human) (UniProt Q05513)
PRKCZ (human), sequence (Q05513 whole entry, looked up): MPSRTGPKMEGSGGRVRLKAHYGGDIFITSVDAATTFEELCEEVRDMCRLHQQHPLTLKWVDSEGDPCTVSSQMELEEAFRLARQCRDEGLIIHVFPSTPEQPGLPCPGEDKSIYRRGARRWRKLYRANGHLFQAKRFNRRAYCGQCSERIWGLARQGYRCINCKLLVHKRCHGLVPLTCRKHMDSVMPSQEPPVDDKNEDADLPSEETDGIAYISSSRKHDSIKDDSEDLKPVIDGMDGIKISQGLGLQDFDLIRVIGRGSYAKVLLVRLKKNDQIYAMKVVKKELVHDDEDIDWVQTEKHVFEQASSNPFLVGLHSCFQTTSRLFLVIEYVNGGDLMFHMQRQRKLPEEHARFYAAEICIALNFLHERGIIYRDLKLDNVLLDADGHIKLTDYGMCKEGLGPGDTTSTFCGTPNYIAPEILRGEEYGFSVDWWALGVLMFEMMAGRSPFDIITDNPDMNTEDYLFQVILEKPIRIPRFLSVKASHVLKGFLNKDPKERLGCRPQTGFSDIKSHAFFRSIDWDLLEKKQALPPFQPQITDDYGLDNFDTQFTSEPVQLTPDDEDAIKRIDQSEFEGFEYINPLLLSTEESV

CHEK1 (human) = CHEK1 (human) (UniProt O14757)
CHEK1 (human), sequence (O14757 whole entry, looked up): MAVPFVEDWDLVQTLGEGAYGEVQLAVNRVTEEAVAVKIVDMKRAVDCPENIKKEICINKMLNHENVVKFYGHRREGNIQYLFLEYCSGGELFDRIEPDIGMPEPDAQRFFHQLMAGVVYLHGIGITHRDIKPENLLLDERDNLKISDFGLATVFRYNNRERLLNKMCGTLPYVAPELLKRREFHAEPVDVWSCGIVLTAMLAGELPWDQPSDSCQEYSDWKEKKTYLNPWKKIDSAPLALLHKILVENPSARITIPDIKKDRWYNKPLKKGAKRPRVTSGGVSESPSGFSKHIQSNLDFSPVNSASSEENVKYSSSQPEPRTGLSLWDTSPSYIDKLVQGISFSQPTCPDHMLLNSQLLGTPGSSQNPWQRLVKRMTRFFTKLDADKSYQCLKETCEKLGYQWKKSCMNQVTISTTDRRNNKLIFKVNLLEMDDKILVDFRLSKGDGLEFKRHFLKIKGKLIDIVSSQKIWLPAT

CDK2 CCNA2 (human) = CDK2 CCNA2 (human) (UniProt P20248+P24941)
MST4 (human) = MST4 (human) (UniProt Q9P289)
PAK4 (human) = PAK4 (human) (UniProt O96013)
MARK4 (human) = MARK4 (human) (UniProt Q96L34)
MAP3K9 (human) = MAP3K9 (human) (UniProt P80192)
PHKG1 (human) = PHKG1 (human) (UniProt Q16816)
IGF1R (human) = IGF1R (human) (UniProt P08069)
SRC (human) = SRC (human) (UniProt P12931)
NUAK1 (human) = NUAK1 (human) (UniProt O60285)

- residual activity (YES1 (human); compound 10.0 µM): 110%
- residual activity (NTRK1 (human); compound 10.0 µM): 104%
- residual activity (MAPK13 (human); compound 10.0 µM): 106%
- residual activity (PRKAA1 or PRKAA2 (rat); compound 10.0 µM): 108%
- residual activity (LCK (mouse); compound 10.0 µM): 121%
- residual activity (DYRK1A (human); compound 10.0 µM): 70%
- residual activity (EPHB3 (human); compound 10.0 µM): 100%
- residual activity (INSRR (human); compound 10.0 µM): 106%
- residual activity (MARK3 (human); compound 10.0 µM): 84%
- residual activity (PIM2 (human); compound 10.0 µM): 107%
- residual activity (CSNK2A1 (human); compound 10.0 µM): 106%
- residual activity (PRKACA (human); compound 10.0 µM): 95%
- residual activity (RIPK2 (human); compound 10.0 µM): 134%
- residual activity (CAMKK2 (human); compound 10.0 µM): 125%
- residual activity (MKNK1 (human); compound 10.0 µM): 110%
- residual activity ([1]; compound 10.0 µM): 49%
- residual activity (MAP2K1 (human); compound 10.0 µM): 29%
- residual activity (JAK2 JH1 JH2 (human); compound 10.0 µM): 17%
- residual activity (CaMK1 (human); compound 10.0 µM): 102%
- residual activity (INSR (human)): 99%
- residual activity (MAPK10 (human); compound 10.0 µM): 79%
- residual activity (AURKB (human); compound 10.0 µM): 102%
- residual activity (SYK (human)): 92%
- residual activity (MAP3K11 (human); compound 10.0 µM): 100%
- residual activity (MINK1 (human); compound 10.0 µM): 73%
- residual activity (PRKCZ (human); compound 10.0 µM): 112%
- residual activity (CHEK1 (human); compound 10.0 µM): 164%
- residual activity (CDK2 CCNA2 (human); compound 10.0 µM): 110%
- residual activity (MST4 (human); compound 10.0 µM): 87%
- residual activity (PAK4 (human); compound 10.0 µM): 55%
- residual activity (MARK4 (human); compound 10.0 µM): 52%
- residual activity (MAP3K9 (human); compound 10.0 µM): 78%
Compound: CCOC(=O)c1ccc(N2NC(=O)/C(=C/c3ccc([N+](=O)[O-])o3)C2=O)cc1

- residual activity (YES1 (human); compound 1.0 µM): 76%
- residual activity (YES1 (human); compound 10.0 µM): 79%
- residual activity (NTRK1 (human); compound 1.0 µM): 79%
- residual activity (NTRK1 (human); compound 10.0 µM): 78%
- residual activity (MAPK13 (human); compound 1.0 µM): 84%
- residual activity (MAPK13 (human); compound 10.0 µM): 97%
- residual activity (PRKAA1 or PRKAA2 (rat); compound 1.0 µM): 111%
- residual activity (PRKAA1 or PRKAA2 (rat); compound 10.0 µM): 120%
- residual activity (LCK (mouse); compound 1.0 µM): 93%
- residual activity (LCK (mouse); compound 10.0 µM): 104%
- residual activity (DYRK1A (human); compound 1.0 µM): 91%
- residual activity (DYRK1A (human); compound 10.0 µM): 85%
- residual activity (EPHB3 (human); compound 1.0 µM): 113%
- residual activity (EPHB3 (human); compound 10.0 µM): 82%
- residual activity (INSRR (human); compound 1.0 µM): 84%
- residual activity (PHKG1 (human); compound 1.0 µM): 94%
- residual activity (PHKG1 (human); compound 10.0 µM): 90%
- residual activity (MARK3 (human); compound 1.0 µM): 73%
- residual activity (MARK3 (human); compound 10.0 µM): 88%
- residual activity (PIM2 (human); compound 1.0 µM): 91%
- residual activity (PIM2 (human); compound 10.0 µM): 93%
- residual activity (CSNK2A1 (human); compound 1.0 µM): 111%
- residual activity (CSNK2A1 (human); compound 10.0 µM): 98%
- residual activity (PRKACA (human); compound 1.0 µM): 94%
- residual activity (PRKACA (human); compound 10.0 µM): 103%
- residual activity (RIPK2 (human); compound 1.0 µM): 86%
- residual activity (RIPK2 (human); compound 10.0 µM): 84%
- residual activity (CAMKK2 (human); compound 1.0 µM): 108%
- residual activity (CAMKK2 (human); compound 10.0 µM): 103%
- residual activity (MKNK1 (human); compound 1.0 µM): 106%
- residual activity (MKNK1 (human); compound 10.0 µM): 95%
- residual activity ([1]; compound 1.0 µM): 97%
- residual activity ([1]; compound 10.0 µM): 90%
- residual activity (MAP2K1 (human); compound 1.0 µM): 36%
- residual activity (MAP2K1 (human); compound 10.0 µM): 3%
- residual activity (JAK2 JH1 JH2 (human); compound 1.0 µM): 5%
- residual activity (JAK2 JH1 JH2 (human); compound 10.0 µM): 8%
- residual activity (CaMK1 (human); compound 1.0 µM): 106%
- residual activity (CaMK1 (human); compound 10.0 µM): 84%
- residual activity (MAPK10 (human); compound 1.0 µM): 83%
- residual activity (IGF1R (human); compound 1.0 µM): 76%
- residual activity (IGF1R (human); compound 10.0 µM): 98%
- residual activity (AURKB (human); compound 1.0 µM): 99%
- residual activity (AURKB (human); compound 10.0 µM): 78%
- residual activity (SRC (human); compound 1.0 µM): 124%
- residual activity (SRC (human); compound 10.0 µM): 72%
- residual activity (NUAK1 (human); compound 1.0 µM): 108%
- residual activity (NUAK1 (human); compound 10.0 µM): 95%
- residual activity (SYK (human)): 77%
- residual activity (MAP3K11 (human); compound 1.0 µM): 83%
- residual activity (MAP3K11 (human); compound 10.0 µM): 89%
- residual activity (MINK1 (human); compound 1.0 µM): 119%
- residual activity (MINK1 (human); compound 10.0 µM): 127%
- residual activity (PRKCZ (human); compound 1.0 µM): 89%
- residual activity (PRKCZ (human); compound 10.0 µM): 91%
- residual activity (CHEK1 (human); compound 1.0 µM): 116%
- residual activity (CHEK1 (human); compound 10.0 µM): 119%
- residual activity (CDK2 CCNA2 (human); compound 1.0 µM): 95%
- residual activity (CDK2 CCNA2 (human); compound 10.0 µM): 97%
- residual activity (MST4 (human); compound 1.0 µM): 107%
- residual activity (MST4 (human); compound 10.0 µM): 94%
- residual activity (PAK4 (human); compound 1.0 µM): 98%
- residual activity (PAK4 (human); compound 10.0 µM): 77%
- residual activity (MARK4 (human); compound 1.0 µM): 119%
- residual activity (MARK4 (human); compound 10.0 µM): 108%
- residual activity (MAP3K9 (human); compound 1.0 µM): 84%
- residual activity (MAP3K9 (human); compound 10.0 µM): 85%
Compound: O=C(NOCC(O)CO)c1ccc(F)c(F)c1Nc1ccc(I)cc1Cl (centres undefined)
